# Laboratory results: ChEMBL document CHEMBL1123466, “Selective thromboxane synthetase inhibitors. 3. 1H-imidazol-1-yl-substituted benzo[b]furan-, benzo[b]thiophene-, and indole-2- and -3-carboxylic acids” (J Med Chem, 1986)
# Molecular target: T1, Cytochrome P450 11B1, mitochondrial (Rattus norvegicus, UniProt P15393)
# T1 sequence (P15393 whole entry): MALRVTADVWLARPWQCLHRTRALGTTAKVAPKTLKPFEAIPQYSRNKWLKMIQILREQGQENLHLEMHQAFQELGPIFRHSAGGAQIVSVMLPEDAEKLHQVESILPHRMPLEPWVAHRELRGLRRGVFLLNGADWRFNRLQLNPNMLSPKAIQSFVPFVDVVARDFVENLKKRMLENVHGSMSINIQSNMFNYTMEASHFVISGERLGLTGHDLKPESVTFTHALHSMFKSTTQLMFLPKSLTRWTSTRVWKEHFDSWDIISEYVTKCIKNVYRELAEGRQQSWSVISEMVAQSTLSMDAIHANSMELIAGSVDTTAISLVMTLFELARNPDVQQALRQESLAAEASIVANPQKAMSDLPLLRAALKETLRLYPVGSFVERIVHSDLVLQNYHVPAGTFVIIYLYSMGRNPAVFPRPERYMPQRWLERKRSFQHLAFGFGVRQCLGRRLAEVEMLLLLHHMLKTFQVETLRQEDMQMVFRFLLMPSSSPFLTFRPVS
# Assay: Effect on adrenal 11-beta-hydroxylase activity at 10e-4 M; No significant effect
row,SMILES,Effect
1,Cc1c(C(=O)O)sc2cc(Cn3ccnc3)ccc12,No effect

# Tested on: Prostacyclin synthase (Sus scrofa)
# Assay: Effect on porcine aorta prostacyclin (PGI-2) synthase activity at 10e-4 M; No significant effect
row,SMILES,Effect
1,Cc1c(C(=O)O)sc2cc(Cn3ccnc3)ccc12,No effect

# Molecular target: Prostaglandin G/H synthase (cyclooxygenase) (Ovis aries) (UniProt P05979+P79208)
# Assay: Effect on ram seminal vesicle cyclooxygenase activity at 10e-4 M; no significant effect
# Assay type: tissue-based
# Sequence of Prostaglandin G/H synthase (cyclooxygenase) (Ovis aries) (P05979 whole entry, looked up): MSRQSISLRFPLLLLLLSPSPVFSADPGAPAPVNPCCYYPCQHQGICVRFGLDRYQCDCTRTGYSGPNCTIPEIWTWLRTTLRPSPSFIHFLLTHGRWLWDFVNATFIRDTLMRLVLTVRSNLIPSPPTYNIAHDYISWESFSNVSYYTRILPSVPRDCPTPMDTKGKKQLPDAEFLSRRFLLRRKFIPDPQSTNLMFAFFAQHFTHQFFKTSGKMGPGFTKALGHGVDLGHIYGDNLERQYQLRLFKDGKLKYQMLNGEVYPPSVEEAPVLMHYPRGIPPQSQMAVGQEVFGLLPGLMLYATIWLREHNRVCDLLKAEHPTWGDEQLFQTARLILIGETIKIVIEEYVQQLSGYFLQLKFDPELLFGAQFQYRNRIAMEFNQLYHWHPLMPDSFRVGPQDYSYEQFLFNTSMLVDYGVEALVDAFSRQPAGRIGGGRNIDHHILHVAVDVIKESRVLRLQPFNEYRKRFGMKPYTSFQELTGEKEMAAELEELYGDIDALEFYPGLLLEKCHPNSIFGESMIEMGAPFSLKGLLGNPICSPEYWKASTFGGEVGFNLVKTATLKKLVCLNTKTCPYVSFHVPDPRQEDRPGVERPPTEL
# Sequence of Prostaglandin G/H synthase (cyclooxygenase) (Ovis aries) (P79208 whole entry, looked up): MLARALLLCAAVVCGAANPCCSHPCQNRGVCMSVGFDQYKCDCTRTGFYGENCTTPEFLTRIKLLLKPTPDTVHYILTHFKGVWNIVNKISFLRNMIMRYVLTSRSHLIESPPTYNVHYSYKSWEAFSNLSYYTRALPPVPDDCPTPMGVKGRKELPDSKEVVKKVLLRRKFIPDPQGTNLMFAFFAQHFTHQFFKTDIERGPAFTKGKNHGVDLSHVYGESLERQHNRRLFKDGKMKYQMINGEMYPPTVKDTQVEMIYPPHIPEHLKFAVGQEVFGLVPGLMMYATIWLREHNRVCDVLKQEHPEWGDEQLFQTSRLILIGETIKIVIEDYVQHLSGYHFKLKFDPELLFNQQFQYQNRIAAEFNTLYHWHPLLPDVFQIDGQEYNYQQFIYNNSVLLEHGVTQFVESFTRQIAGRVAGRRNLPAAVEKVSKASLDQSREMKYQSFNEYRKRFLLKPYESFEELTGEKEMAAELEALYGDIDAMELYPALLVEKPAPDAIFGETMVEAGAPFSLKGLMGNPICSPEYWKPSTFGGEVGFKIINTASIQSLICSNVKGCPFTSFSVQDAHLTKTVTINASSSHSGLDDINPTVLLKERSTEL
row,SMILES,Effect
1,Cc1c(C(=O)O)sc2cc(Cn3ccnc3)ccc12,No effect

# Molecular target: T2, Thromboxane-A synthase (Homo sapiens, UniProt P24557)
# T2 sequence (P24557 whole entry): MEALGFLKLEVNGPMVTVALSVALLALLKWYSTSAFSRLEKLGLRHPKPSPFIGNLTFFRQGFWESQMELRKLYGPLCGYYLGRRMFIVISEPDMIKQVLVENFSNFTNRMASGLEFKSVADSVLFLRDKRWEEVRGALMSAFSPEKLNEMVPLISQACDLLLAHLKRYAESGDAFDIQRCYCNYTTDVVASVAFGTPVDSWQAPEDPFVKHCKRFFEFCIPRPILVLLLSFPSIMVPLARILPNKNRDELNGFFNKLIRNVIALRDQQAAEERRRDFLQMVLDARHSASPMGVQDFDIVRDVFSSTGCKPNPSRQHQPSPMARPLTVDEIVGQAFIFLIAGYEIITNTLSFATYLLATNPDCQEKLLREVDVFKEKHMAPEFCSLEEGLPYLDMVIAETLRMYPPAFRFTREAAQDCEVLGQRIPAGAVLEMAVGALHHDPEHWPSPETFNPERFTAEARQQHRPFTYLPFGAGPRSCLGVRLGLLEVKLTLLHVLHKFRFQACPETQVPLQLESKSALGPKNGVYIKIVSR
# Assay: In vitro inhibition of thromboxane synthase from human platelets.
row,SMILES,IC50
1,O=C(O)c1cc2cc(Cn3ccnc3)ccc2[nH]1,5 nM
2,O=C(O)COc1ccc(Cn2ccnc2)cc1,31 nM
3,O=C(O)c1cc2c(O)cc(Cn3ccnc3)cc2s1,52 nM
4,O=C(O)c1cc2cc(Cn3ccnc3)ccc2s1,21 nM
5,O=C(O)c1cc2ccc(Cn3ccnc3)cc2o1,20 nM
6,O=C(O)c1sc2cc(Cn3ccnc3)ccc2c1Cl,7.4 nM
7,O=C(O)c1csc2c(Cn3ccnc3)cccc12,34 nM
8,COc1cc(Cn2ccnc2)cc2sc(C(=O)O)cc12,5 nM
9,O=C(O)c1cc2ccc(Cn3ccnc3)cc2s1,18 nM
10,Cc1c(C(=O)O)sc2cc(OCCn3ccnc3)ccc12,140 nM
11,O=C(O)c1cc2cccc(Cn3ccnc3)c2s1,120 nM
12,O=C(O)c1csc2cc(Cn3ccnc3)ccc12,19 nM
13,Cc1c(C(=O)O)sc2ccc(Cn3ccnc3)cc12,29 nM
14,O=C(O)c1csc2ccc(Cn3ccnc3)cc12,1700 nM
15,O=C(O)c1cc2ccc(Cn3ccnc3)cc2[nH]1,33 nM
16,O=C(O)c1cc2cc(OCCn3ccnc3)ccc2s1,420 nM
17,O=C(O)c1cc2cc(Cn3ccnc3)ccc2o1,34 nM
18,Cc1c(C(=O)O)sc2cc(Cn3ccnc3)ccc12,5.2 nM
